Measurements published in ChEMBL document CHEMBL1201862, “PubChem BioAssay data set” (2004).
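Growth conditions: 96-well plates. Treatment: test compound, 48 hours, 5 concentrations. Analysis: linear interpolation between bracketing concentrations; unreached endpoints set to highest concentration. GI50 is the concentration that inhibits growth by half.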 Activity calls are given as the source filed them. Cut-off read from the data, not from the text of the source: active = GI50 up to about 1.1 µM and inactive = higher.

Columns and labels:
Assay in all cases: NCI tumour cell line growth inhibition, 48 h
A498 = tested on: A498
HL-60 = tested on: HL-60
HOP-62 = tested on: HOP-62
IGROV-1 = tested on: IGROV-1
LOX IMVI = tested on: LOX IMVI
OVCAR-8 = tested on: OVCAR-8
SNB-19 = tested on: SNB-19
SW-620 = tested on: SW-620
TK-10 = tested on: TK-10
U-251 = tested on: U-251
UACC-257 = tested on: UACC-257
NCI-H226 = tested on: NCI-H226
NCI-H522 = tested on: NCI-H522

Measured: GI50

COc1ccc2oc(C(=O)O)c3c2c1CCC3
inactive: A498 > 100 µM | HL-60 > 100 µM | HOP-62 > 100 µM | IGROV-1 > 100 µM | LOX IMVI > 100 µM | OVCAR-8 > 100 µM | SNB-19 > 100 µM | SW-620 > 100 µM | TK-10 > 100 µM | U-251 > 100 µM | UACC-257 > 100 µM

O=c1[nH]c2cc([N+](=O)[O-])ccc2nc1/C(=N\NO)C(O)c1ccc([N+](=O)[O-])cc1 (centres undefined)
inactive: HL-60 79.4 µM | HOP-62 > 100 µM | IGROV-1 > 100 µM | LOX IMVI 85.1 µM | NCI-H226 > 100 µM | NCI-H522 44.7 µM | OVCAR-8 > 100 µM | SNB-19 > 100 µM | SW-620 > 100 µM | U-251 > 100 µM | UACC-257 > 100 µM

O=C1c2ccccc2CC1C1(O)C(=O)Nc2ccccc21 (centres undefined)
inactive: A498 > 100 µM | HL-60 > 100 µM | HOP-62 > 100 µM | IGROV-1 > 100 µM | LOX IMVI > 100 µM | NCI-H226 > 100 µM | NCI-H522 > 100 µM | OVCAR-8 > 100 µM | SNB-19 > 100 µM | SW-620 > 100 µM | TK-10 > 100 µM | UACC-257 > 100 µM

O=C(O)CCSC(=O)Nc1ccccc1F
inactive: A498 > 100 µM | HL-60 > 100 µM | HOP-62 > 100 µM | LOX IMVI > 100 µM | NCI-H226 > 100 µM | NCI-H522 > 100 µM | SNB-19 > 100 µM | SW-620 > 100 µM | TK-10 > 100 µM | U-251 > 100 µM

Cc1c(C(=O)CC(=O)C(=O)Nc2c(C(C)C)cccc2C(C)C)[n+]([O-])c2ccccc2[n+]1[O-]
inactive: A498 29.4 µM | HL-60 2.4 µM | HOP-62 29.7 µM | IGROV-1 3.55 µM | LOX IMVI 3.4 µM | NCI-H226 22.6 µM | NCI-H522 2.25 µM | OVCAR-8 2.57 µM | SNB-19 7.73 µM | SW-620 3.87 µM | TK-10 26.1 µM | U-251 3.09 µM | UACC-257 3.36 µM

O=C1Nc2cc(F)ccc2C1=O
inactive: A498 > 100 µM | HL-60 > 100 µM | HOP-62 > 100 µM | IGROV-1 > 100 µM | LOX IMVI > 100 µM | NCI-H226 > 100 µM | NCI-H522 60.7 µM | OVCAR-8 > 100 µM | SNB-19 > 100 µM | SW-620 73.3 µM | TK-10 > 100 µM | U-251 > 100 µM | UACC-257 > 100 µM

COc1cc(/C=C2\Cc3ccccc3C2=O)cc(OC)c1OC
inactive: HL-60 > 100 µM | HOP-62 > 100 µM | LOX IMVI > 100 µM | NCI-H226 > 100 µM | NCI-H522 > 100 µM | OVCAR-8 > 100 µM | SNB-19 > 100 µM | SW-620 > 100 µM | TK-10 > 100 µM | U-251 > 100 µM | UACC-257 > 100 µM

C/C(=N\NS(=O)(=O)c1c(C)cc(C)cc1C)c1ccc[n+]([O-])n1
inactive: A498 29.5 µM | HL-60 6.12 µM | HOP-62 > 100 µM | IGROV-1 31.6 µM | NCI-H522 6.61 µM | OVCAR-8 19.6 µM | SNB-19 > 100 µM | SW-620 8.05 µM | U-251 41.7 µM | UACC-257 10.3 µM

[O-][S+]1Nc2c(Cl)cc(Cl)c(Cl)c2S1 (centres undefined)
inactive: A498 82.6 µM | HL-60 32.7 µM | HOP-62 > 100 µM | IGROV-1 > 100 µM | LOX IMVI 78.9 µM | NCI-H226 > 100 µM | NCI-H522 78.9 µM | OVCAR-8 > 100 µM | SNB-19 > 100 µM | SW-620 5.62 µM | TK-10 > 100 µM | U-251 38.6 µM | UACC-257 > 100 µM

CC(Nc1ccc(S(=O)(=O)NC(=N)N)cc1)c1c2ccccc2nc2ccccc12 (centres undefined)
inactive: HL-60 14.5 µM | IGROV-1 46.5 µM | LOX IMVI 28 µM | NCI-H226 19.6 µM | NCI-H522 15.1 µM | OVCAR-8 23.9 µM | SNB-19 40 µM | SW-620 41.3 µM | TK-10 47.4 µM | U-251 31.6 µM | UACC-257 35.3 µM

CC12OC3(C)OC(=O)C(c4ccccc4)(O1)C3(C)O2 (centres undefined)
inactive: A498 > 100 µM | HL-60 > 100 µM | IGROV-1 > 100 µM | LOX IMVI > 100 µM | NCI-H226 > 100 µM | NCI-H522 > 100 µM | OVCAR-8 > 100 µM | SNB-19 > 100 µM | SW-620 > 100 µM | TK-10 > 100 µM | U-251 > 100 µM | UACC-257 > 100 µM

NC(=O)CCC(Nc1c2ccccc2[n+]([O-])c2ccccc12)C(=O)O (centres undefined)
inactive: A498 > 100 µM | HL-60 11.1 µM | HOP-62 > 100 µM | IGROV-1 > 100 µM | LOX IMVI 49 µM | NCI-H226 64.6 µM | NCI-H522 29.9 µM | OVCAR-8 63 µM | SNB-19 77.1 µM | SW-620 > 100 µM | TK-10 > 100 µM | U-251 > 100 µM

O=c1/c(=C/c2cccc([N+](=O)[O-])c2)sc2nc3ccccc3n12
inactive: A498 > 100 µM | HL-60 > 100 µM | HOP-62 > 100 µM | IGROV-1 > 10 µM | LOX IMVI 6.73 µM | NCI-H226 > 100 µM | OVCAR-8 > 100 µM | SNB-19 > 10 µM | SW-620 > 100 µM | TK-10 > 100 µM | U-251 > 10 µM | UACC-257 4.71 µM

Cc1ccc2oc(=O)cc(CC(=O)O)c2c1
inactive: A498 > 100 µM | HL-60 > 100 µM | HOP-62 > 100 µM | IGROV-1 > 100 µM | LOX IMVI > 100 µM | NCI-H226 > 100 µM | NCI-H522 > 100 µM | OVCAR-8 > 100 µM | SNB-19 > 100 µM | SW-620 > 100 µM | TK-10 > 100 µM | U-251 > 100 µM

O=C(O)CCC1c2[nH]c3ccccc3c2CCN1Cc1ccccc1 (centres undefined)
inactive: A498 > 100 µM | HL-60 > 100 µM | IGROV-1 > 100 µM | LOX IMVI > 100 µM | NCI-H226 > 100 µM | NCI-H522 > 100 µM | OVCAR-8 > 100 µM | SNB-19 > 100 µM | SW-620 > 100 µM | TK-10 > 100 µM | U-251 > 100 µM | UACC-257 > 100 µM

C1=Cc2nc1c(-c1ccccc1)c1ccc([n-]1)c(-c1ccccc1)c1nc(c(-c3ccccc3)c3ccc([n-]3)c2-c2ccccc2)C=C1.[Zn+2]
inactive: HL-60 45 µM | HOP-62 19.9 µM | IGROV-1 > 100 µM | LOX IMVI > 100 µM | NCI-H226 > 100 µM | NCI-H522 > 100 µM | OVCAR-8 > 100 µM | SNB-19 > 100 µM | SW-620 > 100 µM | TK-10 > 100 µM | U-251 > 100 µM | UACC-257 > 100 µM

O=C1NC(=O)C(=O)C(c2nc3ccccc3s2)C1=O
inactive: A498 > 100 µM | HL-60 > 100 µM | HOP-62 > 100 µM | IGROV-1 > 100 µM | NCI-H226 > 100 µM | NCI-H522 > 100 µM | OVCAR-8 > 100 µM | SNB-19 > 100 µM | SW-620 > 100 µM | TK-10 > 100 µM | U-251 > 100 µM | UACC-257 > 100 µM
